Results on 21 compounds are retold here after patent US9796711B2, “Substituted pyrazolo[3,4-b]pyridin-6-carboxylic acids and method of use” (AbbVie S.àr.l., priority 2015, dated 2017).

Test [1] concerns the target T1, ΔF508-CFTR (Homo sapiens, UniProt P13569, DEL508-508).
T1 construct: host or cells: CFBE41o-, doxycycline-inducible
Kind of test: CFTR cell surface levels using HRP-tagged ΔF508-CFTR expressing CFBE cells, in the presence of a co-corrector. The format is cell-based. Conditions: HRP-tagged ΔF508-CFTR expressing CFBE cells, in the presence of 3 μM co-corrector; for pEC50: read-out: EC50. In short, it runs like this: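 Cells were seeded with 0.5 μg/mL doxycycline and held 68 h at 37 °C. Test compounds plus 3 μM co-corrector (final 0.1% DMSO) were then added for 20 h at 33 °C. Washed cells received HRP substrate, and luminescence was normalized between DMSO and 3 μM co-corrector controls.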

In test [2] the target is T1, ΔF508-CFTR. Kind of test: CFTR cell surface levels using HRP-tagged ΔF508-CFTR expressing CFBE cells, intrinsic corrector capacity. The test is classed as cell-based. Conditions: for pEC50: read-out: EC50. The method in brief:
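Here the cells express ΔF508-CFTR with horseradish peroxidase inserted in extracellular loop 4, so only rescued channel at the surface gives luminescent signal. Compounds act on their own, 20 h at the reduced temperature of 33 °C; values are percent activity relative to DMSO and a 3 μM corrector.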

Setting [3] is: HRP-tagged ΔF508-CFTR expressing CFBE cells, intrinsic corrector capacity (no co-corrector), 33° C., 20 hours.
The mark [4] stands for this setting: HRP-tagged ΔF508-CFTR CFBE41o- cells, compounds alone (intrinsic corrector capacity), 20 hours at 33° C., positive control 3 μM corrector.
Where [5] appears, read: HRP-tagged ΔF508-CFTR CFBE41o- cells, compounds alone (intrinsic corrector capacity), 20 hours at 33° C.

A word on the pEC50: it is the negative decadic logarithm of the EC50, by convention in mol/L.

pEC50: −log10 of the molar value.

T1 sequence (P13569 with tags, fused parts or gaps DEL508-508): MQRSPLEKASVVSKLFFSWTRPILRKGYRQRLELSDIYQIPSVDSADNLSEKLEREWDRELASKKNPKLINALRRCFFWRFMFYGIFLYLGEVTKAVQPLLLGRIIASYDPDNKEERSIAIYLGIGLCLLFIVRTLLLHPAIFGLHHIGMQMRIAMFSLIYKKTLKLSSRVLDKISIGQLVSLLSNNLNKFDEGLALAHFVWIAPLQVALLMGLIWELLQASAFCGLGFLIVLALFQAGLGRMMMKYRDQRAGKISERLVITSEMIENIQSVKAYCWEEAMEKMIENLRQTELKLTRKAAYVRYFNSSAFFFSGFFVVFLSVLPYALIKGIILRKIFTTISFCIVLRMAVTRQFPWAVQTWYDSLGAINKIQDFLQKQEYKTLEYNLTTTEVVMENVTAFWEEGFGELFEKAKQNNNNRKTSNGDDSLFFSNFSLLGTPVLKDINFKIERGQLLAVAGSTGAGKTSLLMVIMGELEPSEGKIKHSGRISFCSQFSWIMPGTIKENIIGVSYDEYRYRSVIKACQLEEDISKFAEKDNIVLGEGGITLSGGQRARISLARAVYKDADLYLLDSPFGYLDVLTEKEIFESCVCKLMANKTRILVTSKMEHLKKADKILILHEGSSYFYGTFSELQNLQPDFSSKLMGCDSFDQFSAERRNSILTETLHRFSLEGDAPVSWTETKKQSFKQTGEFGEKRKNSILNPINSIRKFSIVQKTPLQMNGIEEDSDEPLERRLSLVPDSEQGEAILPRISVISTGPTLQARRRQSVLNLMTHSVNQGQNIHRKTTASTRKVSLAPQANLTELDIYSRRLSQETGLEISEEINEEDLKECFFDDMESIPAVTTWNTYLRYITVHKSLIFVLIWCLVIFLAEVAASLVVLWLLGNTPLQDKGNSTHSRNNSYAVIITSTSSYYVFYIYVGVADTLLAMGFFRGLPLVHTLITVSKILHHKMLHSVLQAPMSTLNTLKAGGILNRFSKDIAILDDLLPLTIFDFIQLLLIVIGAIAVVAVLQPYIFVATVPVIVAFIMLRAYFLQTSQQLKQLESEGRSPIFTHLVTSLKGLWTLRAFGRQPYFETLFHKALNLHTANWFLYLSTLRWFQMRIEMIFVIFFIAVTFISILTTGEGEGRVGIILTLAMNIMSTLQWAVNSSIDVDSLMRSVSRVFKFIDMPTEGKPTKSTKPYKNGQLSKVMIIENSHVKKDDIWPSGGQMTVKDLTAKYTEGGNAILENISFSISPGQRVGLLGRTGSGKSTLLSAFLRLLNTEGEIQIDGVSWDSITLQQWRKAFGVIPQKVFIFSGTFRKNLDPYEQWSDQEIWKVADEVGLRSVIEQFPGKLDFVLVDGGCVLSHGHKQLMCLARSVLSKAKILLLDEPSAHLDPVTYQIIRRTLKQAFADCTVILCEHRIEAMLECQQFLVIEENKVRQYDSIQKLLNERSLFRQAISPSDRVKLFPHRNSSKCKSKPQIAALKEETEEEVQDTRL

For the compound `CO[C@H]1CCN(c2cc(C(=O)O)nc3c2c(C2CCC2)nn3-c2ccccc2)C1` [compound 512, 3-cyclobutyl-4-[(3S)-3-methoxypyrrolidin-1-yl]-1-phenyl-1H-pyrazolo[3,4-b]pyridine-6-carboxylic acid], at ΔF508-CFTR [1], the “% Activation” value is 286.4% and the pEC50 is 5.85. Besides, on ΔF508-CFTR [2] (setting [3]), the “% Activation” value worked out at 103% and the pEC50 was 5.93.

Regarding `Cc1nn(-c2ccccc2)c2nc(C(=O)O)cc(-c3ccc(N4CCC(F)(F)CC4)cc3)c12` [compound 108, 4-[4-(4,4-difluoropiperidin-1-yl)phenyl]-3-methyl-1-phenyl-1H-pyrazolo[3,4-b]pyridine-6-carboxylic acid], the “% Activation” value at ΔF508-CFTR [1] is on record as 329.7%; at ΔF508-CFTR [2] (setting [4]) it was 145.5%. The negative logarithm of the EC50 (pEC50) on ΔF508-CFTR [1] is 6.12; on ΔF508-CFTR [2] (setting [5]), 6.04.

`Cc1nn(-c2cccc(N(C)C)c2)c2nc(C(=O)O)cc(-c3ccc(N4CCOCC4)cc3)c12` [compound 36, 1-[3-(dimethylamino)phenyl]-3-methyl-4-[4-(morpholin-4-yl)phenyl]-1H-pyrazolo[3,4-b]pyridine-6-carboxylic acid]: the “% Activation” value was found to be 364.5% on ΔF508-CFTR [1] and 118.9% at ΔF508-CFTR [2] (setting [4]). Moreover, the pEC50 is 5.48 at ΔF508-CFTR [1] and 5.70 at ΔF508-CFTR [2] (setting [5]).

`CC(C)c1nn(-c2cccc(C(F)(F)F)c2)c2nc(C(=O)O)cc(-c3ccc(N(C)C4CCOCC4)nc3)c12` [compound 287, 4-{6-[methyl(oxan-4-yl)amino]pyridin-3-yl}-3-(propan-2-yl)-1[3-(trifluoromethyl)phenyl]-1H-pyrazolo[3,4-b]pyridine-6-carboxylic acid]: the figures for the “% Activation” value at ΔF508-CFTR [1] and on ΔF508-CFTR [2] (setting [4]) were 464.35% and 234.95%, respectively. Also, the pEC50 on ΔF508-CFTR [1] was 6.37; at ΔF508-CFTR [2] (setting [5]) it was 6.27.

Regarding `CN(C)CCOc1cc(C(=O)O)nc2c1c(C1CCC1)nn2-c1ccccc1` [compound 637, 3-cyclobutyl-4-[2-(dimethylamino)ethoxy]-1-phenyl-1H-pyrazolo[3,4-b]pyridine-6-carboxylic acid], at ΔF508-CFTR [1], the “% Activation” value stood at 174.45% and the negative-log EC50 (pEC50) is 5.52. For the same compound, on ΔF508-CFTR [2] (setting [3]), the “% Activation” value was 49.14% and the pEC50 was 5.48.

For the compound `Cc1nn(-c2ccccc2)c2nc(C(=O)O)cc(OCC3(F)CCCN(C4COC4)C3)c12` (stereo not drawn) [compound 381, 4-{[3-fluoro-1-(oxetan-3-yl)piperidin-3-yl]methoxy}-3-methyl-1-phenyl-1H-pyrazolo[3,4-b]pyridine-6-carboxylic acid], the “% Activation” value on ΔF508-CFTR [1] stood at 182.9%; on ΔF508-CFTR [2] (setting [4]), 17.695%. For the same compound, the negative logarithm of the EC50 (pEC50) on ΔF508-CFTR [1] is 5.78; at ΔF508-CFTR [2] (setting [5]), 5.30.

Consider `COCC1(F)CCN(c2cc(C(=O)O)nc3c2c(C2CCC2)nn3-c2ccccc2)CC1` [compound 463, 3-cyclobutyl-4-[4-fluoro-4-(methoxymethyl)piperidin-1-yl]-1-phenyl-1H-pyrazolo[3,4-b]pyridine-6-carboxylic acid], for which the entries for the “% Activation” value at ΔF508-CFTR [1] and on ΔF508-CFTR [2] (setting [3]) were 341.85% and 157.75%, respectively. Also, the values for the negative logarithm of the EC50 (pEC50) on ΔF508-CFTR [1] and at ΔF508-CFTR [2] (setting [3]) were 6.43 and 6.16, respectively.

Take `CC1(CCOc2cc(C(=O)O)nc3c2c(C2CCC2)nn3-c2ccccc2)CC1` [compound 631, 3-cyclobutyl-4-[2-(1-methylcyclopropyl)ethoxy]-1-phenyl-1H-pyrazolo[3,4-b]pyridine-6-carboxylic acid]: the “% Activation” value is 283% on ΔF508-CFTR [1] and 99.143% on ΔF508-CFTR [2] (setting [3]). Moreover, the negative-log EC50 (pEC50) was 6.75 on ΔF508-CFTR [1] and 6.46 on ΔF508-CFTR [2] (setting [3]).

In the case of `O=C(O)c1cc(N2CCC3(CCNC3=O)C2)c2c(C3CCC3)nn(-c3ccccc3)c2n1` (stereo not drawn) [compound 537, 3-cyclobutyl-4-(6-oxo-2,7-diazaspiro[4.4]nonan-2-yl)-1-phenyl-1H-pyrazolo[3,4-b]pyridine-6-carboxylic acid], on ΔF508-CFTR [1], the “% Activation” value was determined as 191.2% and the negative-log EC50 (pEC50) was 5.48. Besides, at ΔF508-CFTR [2] (setting [3]), the “% Activation” value was 45.36% and the pEC50 is 5.48.

For `COC1CN(c2cc(C(=O)O)nc3c2c(C(C)C)nn3-c2cccc(C)c2)C1` [compound 212, 4-(3-methoxyazetidin-1-yl)-1-(3-methylphenyl)-3-(propan-2-yl)-1H-pyrazolo[3,4-b]pyridine-6-carboxylic acid], the “% Activation” value on ΔF508-CFTR [1] is 386.9%; on ΔF508-CFTR [2] (setting [4]), 139.7%. The values for the negative-log EC50 (pEC50) at ΔF508-CFTR [1] and at ΔF508-CFTR [2] (setting [5]) were 5.83 and 5.58, respectively.

Take `Cc1nn(-c2ccccc2)c2nc(C(=O)O)cc(N3CC4(CCCCO4)C3)c12` [compound 312, 3-methyl-4-(5-oxa-2-azaspiro[3.5]nonan-2-yl)-1-phenyl-1H-pyrazolo[3,4-b]pyridine-6-carboxylic acid]: the entries for the “% Activation” value at ΔF508-CFTR [1] and at ΔF508-CFTR [2] (setting [4]) were 185% and 61.325%, respectively. Moreover, the pEC50 on ΔF508-CFTR [1] is 5.63; on ΔF508-CFTR [2] (setting [5]) it was 5.60.

In the case of `COC1CCN(c2cc(C(=O)O)nc3c2c(C2CCC2)nn3-c2ccccc2)CC1` [compound 358, 3-cyclobutyl-4-(4-methoxypiperidin-1-yl)-1-phenyl-1H-pyrazolo[3,4-b]pyridine-6-carboxylic acid], the “% Activation” value stood at 370.47% at ΔF508-CFTR [1] and 205.07% at ΔF508-CFTR [2] (setting [4]). Moreover, the negative logarithm of the EC50 (pEC50) is 6.69 at ΔF508-CFTR [1] and 6.39 at ΔF508-CFTR [2] (setting [5]).

Consider `CO[C@H]1CC[C@H](Oc2cc(C(=O)O)nc3c2c(C2CCC2)nn3-c2ccccc2)CC1` [compound 429, 3-cyclobutyl-4-[(trans-4-methoxycyclohexyl)oxy]-1-phenyl-1H-pyrazolo[3,4-b]pyridine-6-carboxylic acid], for which, on ΔF508-CFTR [1], the “% Activation” value turned out to be 268.2% and the pEC50 was 6.43. Further, at ΔF508-CFTR [2] (setting [3]), the “% Activation” value was 114.95% and the pEC50 was 6.01.

`CC(C)c1nn(-c2cccc(F)c2)c2nc(C(=O)O)cc(-c3ccc(N4CCOCC4)cc3)c12` [compound 242, 1-(3-fluorophenyl)-4-[4-(morpholin-4-yl)phenyl]-3-(propan-2-yl)-1H-pyrazolo[3,4-b]pyridine-6-carboxylic acid]: the “% Activation” value is reported as 394.12% on ΔF508-CFTR [1] and 206.5% on ΔF508-CFTR [2] (setting [4]). Also, the results for the negative logarithm of the EC50 (pEC50) on ΔF508-CFTR [1] and on ΔF508-CFTR [2] (setting [5]) were 6.47 and 6.22, respectively.

Take `Cc1nn(-c2ccccc2)c2nc(C(=O)O)cc(-c3ccc(N4CCOC(C)(C)C4)cc3)c12` [compound 119, 4-[4-(2,2-dimethylmorpholin-4-yl)phenyl]-3-methyl-1-phenyl-1H-pyrazolo[3,4-b]pyridine-6-carboxylic acid]: the “% Activation” value at ΔF508-CFTR [1] stood at 413.2%; on ΔF508-CFTR [2] (setting [4]) it was 207.25%. The pEC50 on ΔF508-CFTR [1] was 6.20; on ΔF508-CFTR [2] (setting [5]), 6.04.

With `O=C(O)c1cc(N2CCC(CN3CCCC(F)(F)C3)CC2)c2c(C3CCC3)nn(-c3ccccc3)c2n1` [compound 830, 3-cyclobutyl-4-{4-[(3,3-difluoropiperidin-1-yl)methyl]piperidin-1-yl}-1-phenyl-1H-pyrazolo[3,4-b]pyridine-6-carboxylic acid], on ΔF508-CFTR [1], the “% Activation” value was 588.2% and the negative-log EC50 (pEC50) was 7.20. On ΔF508-CFTR [2] (setting [3]), the “% Activation” value was determined as 353.9% and the pEC50 was 6.94.

With `CC(=O)NC1CCN(c2cc(C(=O)O)nc3c2c(C)nn3-c2ccccc2)CC1` [compound 292, 4-(4-acetamidopiperidin-1-yl)-3-methyl-1-phenyl-1H-pyrazolo[3,4-b]pyridine-6-carboxylic acid], the entries for the “% Activation” value on ΔF508-CFTR [1] and at ΔF508-CFTR [2] (setting [4]) were 141.1% and 15.095%, respectively. Also, the pEC50 is 5.38 at ΔF508-CFTR [1] and 5.12 at ΔF508-CFTR [2] (setting [5]).

For `Cc1nn(-c2ccccc2)c2nc(C(=O)O)cc(N3CCC(NS(C)(=O)=O)CC3)c12` [compound 303, 4-{4-[(methanesulfonyl)amino]piperidin-1-yl}-3-methyl-1-phenyl-1H-pyrazolo[3,4-b]pyridine-6-carboxylic acid], the entries for the “% Activation” value on ΔF508-CFTR [1] and on ΔF508-CFTR [2] (setting [4]) were 123.5% and 10.878%, respectively. The pEC50 at ΔF508-CFTR [1] and at ΔF508-CFTR [2] (setting [5]) was 5.12 in each case.

Take `Cc1cccc(-n2nc(C(C)C)c3c(N4CCC(C(F)(F)F)C4)cc(C(=O)O)nc32)c1` (stereo not drawn) [compound 215, 1-(3-methylphenyl)-3-(propan-2-yl)-4-[3-(trifluoromethyl)pyrrolidin-1-yl]-1H-pyrazolo[3,4-b]pyridine-6-carboxylic acid]: the results for the “% Activation” value on ΔF508-CFTR [1] and on ΔF508-CFTR [2] (setting [4]) were 347.15% and 165.95%, respectively. The pEC50 at ΔF508-CFTR [1] is 6.04; at ΔF508-CFTR [2] (setting [5]), 5.99.

For `Cc1nn(-c2ccccc2)c2nc(C(=O)O)cc(O[C@@H]3CCCN(C)C3)c12` [compound 343, 3-methyl-4-{[(3R)-1-methylpiperidin-3-yl]oxy}-1-phenyl-1H-pyrazolo[3,4-b]pyridine-6-carboxylic acid], the results for the “% Activation” value at ΔF508-CFTR [1] and on ΔF508-CFTR [2] (setting [4]) were 104.7% and 11.085%, respectively. Moreover, the pEC50 at ΔF508-CFTR [1] and at ΔF508-CFTR [2] (setting [5]) was 5.12 each time.

In the case of `O=C(O)c1cc(N2CCC(N3CCC(C(F)(F)F)C3)CC2)c2c(C3CCC3)nn(-c3ccc(F)cc3)c2n1` (stereo not drawn) [compound 869], on ΔF508-CFTR [1], the “% Activation” value was 513.05% and the pEC50 is 7.42. On ΔF508-CFTR [2] (setting [3]), the “% Activation” value came out at 299.1% and the pEC50 is 6.95.
